According to ChEMBL document CHEMBL1127273, “Novel cholecystokinin receptor ligands: Oxopiperazines derived from Boc-CCK-4” (Bioorg Med Chem Lett, 1994):
Residues, ends and D or L forms follow the SMILES beside them. *: point of attachment. NHPhenethyl = c1ccc(CCN*)cc1; Boc = CC(C)(C)OC(=O)*

Experiments:
[1] = molecular target: Cholecystokinin receptor (Mus musculus) (UniProt O08786+P56481); assay: Ratio of CCK-A receptor to CCK-B receptor was determined; format: protein assay
[2] = molecular target: T1, Gastrin/cholecystokinin type B receptor (Mus musculus, UniProt P56481); assay: Concentration producing half-maximal inhibition of specific binding of [125I]- CCK-8 to CCK receptors mouse forebrain membranes (CCK-B); format: tissue-based, Brain
T1 sequence (P56481 whole entry): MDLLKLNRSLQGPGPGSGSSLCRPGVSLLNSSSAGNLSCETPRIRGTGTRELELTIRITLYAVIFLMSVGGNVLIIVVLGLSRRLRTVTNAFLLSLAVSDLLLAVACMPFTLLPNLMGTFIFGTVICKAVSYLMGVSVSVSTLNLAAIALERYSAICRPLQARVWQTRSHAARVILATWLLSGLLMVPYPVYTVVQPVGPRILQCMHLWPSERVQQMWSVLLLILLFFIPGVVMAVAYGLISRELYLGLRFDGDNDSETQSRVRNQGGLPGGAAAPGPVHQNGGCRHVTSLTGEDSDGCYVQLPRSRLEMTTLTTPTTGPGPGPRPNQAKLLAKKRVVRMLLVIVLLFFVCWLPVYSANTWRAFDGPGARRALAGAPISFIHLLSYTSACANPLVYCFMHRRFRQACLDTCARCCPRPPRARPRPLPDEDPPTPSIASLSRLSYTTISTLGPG

[3] = molecular target: T2, Cholecystokinin receptor type A (Mus musculus, UniProt O08786); assay: Concentration producing half-maximal inhibition of specific binding of [125I]- CCK-8 to CCK receptors on mouse pancreatic membranes (CCK-A)
T2 sequence (O08786 whole entry): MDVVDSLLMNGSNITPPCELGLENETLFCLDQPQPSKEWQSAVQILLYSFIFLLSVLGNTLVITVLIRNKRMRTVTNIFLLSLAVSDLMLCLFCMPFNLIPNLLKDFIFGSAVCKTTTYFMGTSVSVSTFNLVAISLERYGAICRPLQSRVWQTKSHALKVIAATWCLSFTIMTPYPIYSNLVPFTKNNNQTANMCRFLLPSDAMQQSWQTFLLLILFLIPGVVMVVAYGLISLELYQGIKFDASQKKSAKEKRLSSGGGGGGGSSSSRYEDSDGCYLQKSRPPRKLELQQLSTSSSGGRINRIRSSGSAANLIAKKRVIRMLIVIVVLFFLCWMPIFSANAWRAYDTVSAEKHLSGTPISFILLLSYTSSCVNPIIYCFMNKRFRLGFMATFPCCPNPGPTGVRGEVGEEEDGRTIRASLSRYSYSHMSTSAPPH

| Compound | Ratio [1] | IC50 [2] [µM] | IC50 [3] [µM] |
| --- | --- | --- | --- |
| CC(C)C[C@H](NC(=O)C(NC(=O)OC(C)(C)C)c1ccccc1)C(=O)N1CC(=O)N[C@@H](Cc2ccccc2)C1 (stereo not given in full) | 2.4 | 10 | 24 |
| CC(C)C[C@H](NC(=O)[C@H](Cc1c[nH]c2ccccc12)NC(=O)OC(C)(C)C)C(=O)N[C@@H](CC(=O)O)C(=O)NCCc1ccccc1 (Boc-Trp-Leu-Asp-NHPhenethyl) | 10 |  |  |
| CC(C)C[C@H](NC(=O)[C@H](Cc1c[nH]c2ccccc12)NC(=O)OC(C)(C)C)C(=O)N1CC(=O)N[C@@H](Cc2ccccc2)C1 | 0.0073 | 37 | 0.27 |
| CCOC(=O)N[C@@H](Cc1c[nH]c2ccccc12)C(=O)N[C@@H](CC(C)C)C(=O)N1CC(=O)N[C@@H](Cc2ccccc2)C1 | 0.011 | 38 | 0.43 |
| CC(C)C[C@H](NC(=O)[C@H](Cc1c[nH]c2ccccc12)NC(=O)OCc1ccccc1)C(=O)N1CC(=O)N[C@@H](Cc2ccccc2)C1 | 0.0036 | 18 | 0.064 |
| CC(C)C[C@H](NC(=O)[C@H](Cc1c[nH]c2ccccc12)NC(=O)OC(C)(C)C)C(=O)N1C[C@H](CCc2ccccc2)NC(=O)[C@@H]1CC(=O)O | 0.077 | 8.2 | 0.63 |
| CC(C)C[C@H](NC(=O)[C@H](Cc1c[nH]c2ccccc12)NC(=O)OC(C)(C)C)C(=O)N1CC(=O)N[C@H](Cc2ccccc2)C1 | 0.0012 | 39 | 0.046 |
| CC(C)C[C@H](NC(=O)[C@H](Cc1c[nH]c2ccccc12)NC(=O)OC(C)(C)C)C(=O)N1C[C@H](c2ccccc2)NC(=O)[C@@H]1CC(=O)O | 1 | 9.4 | 9.4 |
| CC(C)C[C@H](NC(=O)[C@H](Cc1c[nH]c2ccccc12)NC(=O)OCc1ccccc1)C(=O)N1CC(=O)N[C@H](Cc2ccccc2)C1 | 0.0009 | 15 | 0.014 |
| CC(C)C[C@H](NC(=O)[C@H](Cc1c[nH]c2ccccc12)NC(=O)/C=C/c1ccccc1)C(=O)N1CC(=O)N[C@@H](Cc2ccccc2)C1 |  | > 100 | 0.52 |
| CC(C)C[C@H](NC(=O)[C@@H](Cc1c[nH]c2ccccc12)NC(=O)OC(C)(C)C)C(=O)N1CC(=O)N[C@@H](Cc2ccccc2)C1 |  | > 100 | 5.5 |

Results, then the compound that gave them:

| Ratio [1] | IC50 [2] [µM] | IC50 [3] [µM] | Compound |
| --- | --- | --- | --- |
| 6.3 | 8.9 | 56 | CC(C)C[C@H](NC(=O)CCc1c[nH]c2ccccc12)C(=O)N1C[C@H](Cc2ccccc2)NC(=O)[C@@H]1CC(=O)O |
| 0.09 | 70 | 6.3 | CC(C)C[C@H](NC(=O)[C@H](Cc1c[nH]c2ccccc12)NC(=O)OC(C)(C)C)C(=O)N1C[C@@H](Cc2ccccc2)NC(=O)[C@H]1CC(=O)O |
| 0.21 | 17 | 3.6 | CC(C)C[C@H](NC(=O)[C@H](Cc1c[nH]c2ccccc12)NC(=O)OC(C)(C)C)C(=O)N1C[C@@H](Cc2ccccc2)NC(=O)[C@@H]1CC(=O)O |
| 3.4 | 15 | 51 | CC(C)C[C@H](NC(=O)[C@@H](N)Cc1c[nH]c2ccccc12)C(=O)N1C[C@H](Cc2ccccc2)NC(=O)[C@@H]1CC(=O)O |
| 0.014 | 61 | 0.84 | CC(C)C[C@H](NC(=O)[C@H](Cc1c[nH]c2ccccc12)NC(=O)OC(C)(C)C)C(=O)N1C[C@H](Cc2ccccc2)NC(=O)[C@@H]1CC(=O)O |
|  | > 100 | 1.4 | CCCC[C@H](NC(=O)c1c[nH]c2ccccc12)C(=O)N1C[C@H](Cc2ccccc2)NC(=O)[C@@H]1CC(=O)O |
| 0.38 | 7.4 | 2.8 | CC(C)C[C@H](NC(=O)[C@H](Cc1c[nH]c2ccccc12)NC(=O)OC(C)(C)C)C(=O)N1C[C@H](Cc2ccccc2)NC(=O)[C@H]1CC(=O)O (mixture of isomers) |
| 6 | 1.2 | 7.2 | CCCC[C@H](NC(=O)Cc1c[nH]c2ccccc12)C(=O)N1C[C@H](Cc2ccccc2)NC(=O)[C@@H]1CC(=O)O |
| 5.2 | 2.5 | 13 | CC(C)C[C@H](NC(=O)Cc1c[nH]c2ccccc12)C(=O)N1C[C@H](Cc2ccccc2)NC(=O)[C@@H]1CC(=O)O |
